Measured values taken from PMC11477167, “Structure–Function Relationship of a Novel MTX-like Peptide (MTX1) Isolated and Characterized from the Venom of the Scorpion Maurus palmatus” (International Journal of Molecular Sciences, 2024).
pIC50: −log10 of the molar value. “Also recorded” adds a separate entry of the source. Bridge positions count the residues as written; N and C are the ends. Peptide text beside a SMILES is read from it.

How the values were obtained:
[1] = test system: human lung adenocarcinoma cells; settings: by blocking Kv1.2 and Kv1.3; ref [15],[16]; cited from earlier work
Text: (§1) For instance, several research projects have focused on the use of scorpion neurotoxins as potential new treatments against cancers.

glioblastoma = settings: subject of clinical trials; ref [9],[12],[13]; cited from earlier work
Text: as §1

[2] = test system: glioma and melanoma cells; settings: glioma (charybdotoxin) and melanoma (iberiotoxin); ref [12],[14]; cited from earlier work
Text: as §1

rat Kv1.3 = target: T1, rat Kv1.3 (Rattus norvegicus, UniProt P15384); test: Two-electrode voltage clamp, Kv1.3 expressed in Xenopus laevis oocytes; type: cell-based
T1 construct: expressed in transfected cells; host or cells: Xenopus laevis oocytes, cRNA injection
T1 sequence (P15384 whole entry): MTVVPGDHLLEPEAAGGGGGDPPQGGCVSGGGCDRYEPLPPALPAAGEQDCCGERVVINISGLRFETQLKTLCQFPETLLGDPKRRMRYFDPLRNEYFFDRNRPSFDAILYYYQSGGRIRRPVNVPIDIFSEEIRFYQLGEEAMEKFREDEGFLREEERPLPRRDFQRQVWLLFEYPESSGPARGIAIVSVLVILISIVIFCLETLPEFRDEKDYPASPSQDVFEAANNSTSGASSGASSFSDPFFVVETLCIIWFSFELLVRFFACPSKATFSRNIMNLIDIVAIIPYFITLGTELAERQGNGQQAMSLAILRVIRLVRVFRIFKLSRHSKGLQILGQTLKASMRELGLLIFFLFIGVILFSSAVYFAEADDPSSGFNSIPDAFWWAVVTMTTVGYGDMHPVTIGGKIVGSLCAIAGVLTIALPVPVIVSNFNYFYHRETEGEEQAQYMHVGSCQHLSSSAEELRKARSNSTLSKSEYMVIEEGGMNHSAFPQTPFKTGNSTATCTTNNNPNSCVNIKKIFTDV
Text: (§2) 4.11. Oocyte Preparation and Electrophysiological Recordings
(§3) The xenopus was anesthetized in a bath of tricaine solution. It was then placed on its back in a dissecting tank covered with alcohol-cleaned BenchGuard paper. A horizontal slit was made in the animal’s lower abdomen by incising a piece of the underlying muscle with the skin. The ootheca were then gently pulled outwards and a portion was cut out and transferred to a sterile Erlen tube containing MBS medium, leaving the rest in place in the ovary. Finally, the incision was closed using sterile, absorbable sutures.
(§4) Xenopus laevis oocytes at stages V and VI were retrieved and prepared for cRNA injection and electrophysiological recordings. The enzymatic elimination of oocyte follicular cell layers was carried out by employing 2 mg·mL^−1 collagenase IA (Sigma, St. Louis, MO, USA) in the classical Barth’s medium containing (in mm) 88 NaCl, 1 KCl, 0.82 MgSO4, 0.33 Ca(NO3)2, 0.41 CaCl2, 2.4 NaHCO3, and 15N-2-hydroxyethylpiperazine-N′-ethanesulfonic acid (Hepes), with a pH of 7.4 (NaOH). The plasmids were digested using Xba1 (rat Kv1.2) and EcoR1 (rat Kv1.3). The resultant linearized plasmids were transcribed using either a T7 or SP6 mMessage mMachine transcription kit (Ambion, Austin, TX, USA). Subsequently, cRNAs (1 µg·µL^−1) were cryopreserved in H2O at −80 °C. Injection of cells with 50 nL of cRNA (0.2 µg·µL^−1 rat Kv1.2, or Kv1.3 channels) took place 2 days later. To promote the expression of ion channels, the cells were cultured at 16 °C in a specified nutrient oocyte medium for 2–6 days prior to conducting current recordings. Oocyte currents were captured at 20–22 °C using conventional two-microelectrode techniques with a voltage-clamp amplifier (GeneClamp 500; Axon Instruments, Foster City, CA, USA) linked to a 16-bit AD/DA converter (Digidata 1200A, Axon Instruments). […] Voltage pulses were administered every 15 s, maintaining a holding potential of −80 mV. Current data were sampled at 10 kHz, subjected to low-pass filtration at 2 kHz through an eight-pole Bessel filter and archived on a computer for subsequent assessment. The extracellular solution for recording contained (in mM) 88 NaCl, 10 KCl, 2 MgCl2, 0.5 CaCl2, 0.5 niflumic acid, 5 Hepes, and 0.1% bovine serum albumin, with a pH of 7.4 (NaOH). The P/4 protocol was implemented for online subtraction of the leak and capacitive currents. Any residual capacitive artifacts were eliminated for visualization purposes. The peptide solutions of MTX1 were perfused into the recording chamber at a flow rate of 2 mL/min using a ValveBank4 apparatus (Automate Scientific Inc., St Berkeley, CA 94710, USA). Data analysis was conducted using the software patch clamp 6.0.3 (Axon Instruments, Foster City, CA, USA). The outcomes are presented as the mean ± SEM.

rat Kv1.2 = target: T2, rat Kv1.2 (Rattus norvegicus, UniProt P63142); test: Two-electrode voltage clamp, Kv1.2 expressed in Xenopus laevis oocytes; type: cell-based
T2 construct: expressed in transfected cells; host or cells: Xenopus laevis oocytes, cRNA injection
T2 sequence (P63142 whole entry): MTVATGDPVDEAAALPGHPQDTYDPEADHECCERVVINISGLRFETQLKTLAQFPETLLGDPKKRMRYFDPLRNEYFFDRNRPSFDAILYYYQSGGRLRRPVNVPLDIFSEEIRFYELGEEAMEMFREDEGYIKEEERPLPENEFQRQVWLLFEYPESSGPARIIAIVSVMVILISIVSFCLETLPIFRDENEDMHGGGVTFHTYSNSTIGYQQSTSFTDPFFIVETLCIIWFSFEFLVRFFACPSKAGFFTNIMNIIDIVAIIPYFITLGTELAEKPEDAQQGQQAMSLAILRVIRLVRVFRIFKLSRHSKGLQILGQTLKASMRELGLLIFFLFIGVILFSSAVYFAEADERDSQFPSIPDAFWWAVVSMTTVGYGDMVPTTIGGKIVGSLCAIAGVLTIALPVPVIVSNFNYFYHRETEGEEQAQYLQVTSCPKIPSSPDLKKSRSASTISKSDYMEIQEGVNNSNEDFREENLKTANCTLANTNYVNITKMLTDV
Text: as §2, §3, §4

[3] = test system: 125I-CHTX binding site of rat brain synaptosomes (Kv channels); test: Competition binding with 125I-CHTX on rat brain synaptosomes; settings: conclusion in words
[4] = test system: 125I-apamin binding site of rat brain synaptosomes (SKCa channels); test: Competition binding with 125I-apamin on rat brain synaptosomes (SKCa channels)
Procedure: The rats were euthanized by dislocation and their brains were rapidly removed and placed on a cold plate. The brain tissue was suspended in a 10% (w/v) sucrose-HEPES buffer in a polytron homogenizer with a protease inhibitor. Synaptosomal membranes were prepared as previously described. The protein content of the membranes, determined by the […], was 0.92 µg/µL. The protein content was determined using a modified Lowry method, with assays conducted on the synaptosomal fraction P2 isolated from rat brain. MTX1 was reacted with Na [^125I] (Amersham Biosciences, Buckinghamshire, United Kingdom) in the presence of lactoperoxidase and H2O2 in 50 mM phosphate buffer at pH 7.2. The separation of free iodine was achieved by anion exchange chromatography using Dowex 1X-8 (Merck, Darmstadt, Germany). The mixture was then injected into a reverse-phase HPLC column (analytical RP-C18 Beckman, Ultrasphere, 5 μm, 4.6 × 250 mm). Solvent A consisted of 0.1% trifluoroacetic acid (v/v) in water, and solvent B consisted of 0.1% trifluoroacetic acid (v/v) in acetonitrile. The HPLC experiments were performed as previously described. Radioactivity was quantified using a Packard spectrometer (Crystal I1 multidetector system, San Francisco, CA, USA) with the native toxin eluted at 18 min. The iodination mixture yielded only two peaks (RT = 2 min and RdT = 25 min); approximately 70–85% of the radioactivity was linked to the peak (RT = 25 min), which was postulated to correspond to the mono-iod derivative.
4.10. Binding Assay for SKCa Channels
The process of iodination of apamin was executed utilizing IODO-GEN. In displacement assays, 50 μL of 0.1 nM ^125I-apamine (2000 Ci/mmol) was combined with 400 µL of synaptosome suspension (0.4 mg protein/mL). The samples were incubated with 50 µL of one of the competitor concentration series (MTX1, MTX or CHTX) in a final volume of 500 µL for 1 h at 0 °C. The incubation buffer consisted of 25 mM hydroxymethyl amino methane (Tris-HCl) (pH 7.2), 10 mM potassium chloride (KCl) and 0.1% BS. Following centrifugation for 10 min, the samples were centrifuged again and the resulting pellets were washed three times with 2 mL of the same buffer. The quantification of bound radioactivity was conducted utilizing (Packard Crystal II). The mean values of triplicate experiments are reported. Non-specific binding, characterized as less than 10% of total binding, was determined in the presence of an excess (10 nM) of unlabeled apamin.

C57BL/6 mice = test: Neurotoxic activity in mice by intracerebroventricular injection (LD50); type: in vivo, mouse
Procedure: 4.5. The Neurotoxic Activity of MTX1 in Mice
To assess the LD50 of the MTX1, different doses of the peptide were administered to males C57BL/6 mice (20 ± 2 g) by an intracerebroventricular injection under ether anesthesia, which is considered the most sensitive route for scorpion toxins in mammals. Each dose was suspended/diluted in 5 μL of 0.1% (w/v) BSA and tested on six mice. Symptoms of toxicity were observed and recorded over a 24 h period. The median lethal dose (LD50) corresponds to the dose required to kill half of the tested mice.

[5] = test system: anti-MTX mice polyclonal antibodies; test: ELISA cross-antigenicity with anti-MTX serum; type: binding, mouse
Procedure: Upon retrieval of pre-immune serum via retro-orbital puncture, 30 µg of MTX1 or saline (0.9% NaCl) in complete Freund’s adjuvant was subcutaneously administered to 6-week-old mice on day 1. Subsequent booster injections of incomplete Freund’s adjuvant were administered 15 and 25 days later. On […], the mice were bled and used for ELISA experiments in 96-well microtitration plates (catalog number M5785-1CS Sigma Aldrich, MO, USA). […] The optimal dilution of the immune serum resulting in half-maximum binding of MTX to its specific antiserum was determined to be 1/100,000.
The specificity of anti-MTX against MTX1 and CHTX toxins was assessed using ELISA. One hundred microliters of 5 μg/mL of antigen (MTX1 and CHTX) in 0.1 M sodium bicarbonate buffer at pH 9.6 were adsorbed on 96-well NUNC plates for 90 min at 37 °C. […] Finally, 200 μL of 0.4 mg/mL OPD in citrate buffer (pH 5.2 containing H2O2 (0.03%) was added to each well, followed by a 5 min incubation in the dark at room temperature. The reaction was halted by adding 50 μL of 2 N sulfuric acid. The absorbance at 492 nm was measured using a spectrophotometer (Thermo-Multiskan EX, Shanghai, China). The immune serum titer corresponded to the dilution that yielded 50% of the maximum absorbance.

[6] = 2.5 nM, extracellular application
[7] = kinetics of inhibition, after washing
[8] = oocytes, one value printed for Kv1.2 and Kv1.3
[9] = comparison in words (Kv1.2 and SKCa channels together)

margatoxin (TIINVKCTSPKQCLPPCKAQFGQSAGAKCMNGKCKCYPH; UniProt P40755 1-39, looked up)
Inhibition of proliferation [1]: inhibited the proliferation of human lung adenocarcinoma cells

chlorotoxin
Effect on glioblastoma cells (glioblastoma): specifically targets the invasion and migration of glioblastoma cells

iberiotoxin (QFTDVDCSVSKECWSVCKDLFGVDRGKCMGKKCRCYQ; UniProt P24663 1-37, looked up)
Inhibition of tumor cell proliferation and migration [2]: able to inhibit glioma and melanoma cell proliferation and migration

CSCC[C@@H]1NC(=O)[C@@H]2CSSC[C@H](NC(=O)[C@H](CO)NC(=O)[C@@H](N)C(C)C)C(=O)N[C@@H]([C@@H](C)O)C(=O)NCC(=O)N[C@@H](CO)C(=O)N[C@@H](CCCCN)C(=O)N[C@@H](CCC(=O)O)C(=O)N[C@@H](CSSC[C@@H](C(=O)N[C@@H](CCCCN)C(=O)N[C@H]3CSSC[C@@H](C(N)=O)NC(=O)CNC(=O)[C@H](Cc4ccc(O)cc4)NC3=O)NC(=O)[C@H](CCCCN)NC(=O)[C@H](CCCNC(=N)N)NC(=O)[C@H](CC(N)=O)NC1=O)C(=O)N[C@@H](Cc1ccc(O)cc1)C(=O)N[C@@H](C)C(=O)N1CCC[C@H]1C(=O)N[C@H]1CSSC[C@H](NC(=O)CNC(=O)[C@H]([C@@H](C)O)NC(=O)[C@H](CCC(N)=O)NC(=O)[C@H](CCCCN)NC(=O)[C@H](CCCCN)NC1=O)C(=O)N1CCC[C@H]1C(=O)N[C@@H](CC(N)=O)C(=O)N[C@@H](C)C(=O)N[C@@H](CCCCN)C(=O)N2 [MTX1] (H-VSCTGSKECYAPCKKQTGCPNAKCMNRKCKCYGC-NH2; disulfide 3-24, 9-29, 13-19, 31-34; N-terminus and C-terminus assumed)
Reduction of outward Kv1.3 currents over voltage (rat Kv1.3; [6]): markedly reduced outward Kv1.2 and Kv1.3 currents at all test voltages examined | Block of Kv1.3 relative to MTX (rat Kv1.3; comparison in words): comparable effect to MTX; also recorded: in a comparable manner to MTX | Reversibility on washing, Kv1.3 (rat Kv1.3; [7]): partial recovery after the washing | Hill coefficient, Kv1.3 concentration-response (rat Kv1.3; [8]): 1.1 ± 0.1 | IC50 on Kv1.2 relative to MTX (rat Kv1.2; 0.26 nM of MTX1 against 0.8 nM of MTX): three times lower than that of MTX | Reduction of outward Kv1.2 currents over voltage (rat Kv1.2; [6]): markedly reduced outward Kv1.2 and Kv1.3 currents at all test voltages examined | inhibition at 0.0025 µM (rat Kv1.2; 2.5 nM, oocytes, read-out: Inhibition of Kv1.2 currents): 90% | Potency on Kv1.2 relative to MTX (rat Kv1.2; [9]): higher binding affinity; also recorded: more active than MTX on the Kv1.2 channel; also recorded: significantly more effective at inhibiting the Kv1.2 currents and SKCa channels | Reversibility on washing, Kv1.2 (rat Kv1.2; [7]): partial recovery after the washing | Hill coefficient, Kv1.2 concentration-response (rat Kv1.2; [8]): 1.1 ± 0.1 | Interaction with the CHTX-binding site [3]: partially interacted with the CHTX-binding site | Potency on SKCa channels relative to MTX [4, 9]: higher binding affinity; also recorded: significantly more effective at inhibiting the Kv1.2 currents and SKCa channels | Affinity relative to MTX, apamin-sensitive SKCa channels ([4]; comparison of IC50 of MTX1 with IC50 of MTX (5 nM)): almost three times higher than that of MTX | pIC50 ([4]; rat brain synaptosomes (0.4 mg protein/mL), 50 μL of 0.1 nM 125I-apamin, 1 h, 0 °C, pH 7.2, mean of triplicate, read-out: IC50, inhibition of 125I-apamin binding): 8.77 | Recognition of apamin receptor sites ([4]; rat brain synaptosomes, conclusion in words): recognizes apamin receptor sites with a high affinity and binds partially with these sites | Toxicity in mice (qualitative) (C57BL/6 mice; i.c.v. injection): highly toxic | Toxicity in mice relative to MTX (C57BL/6 mice; i.c.v., LD50 comparison with MTX): approximately eight times more lethal than MTX; also recorded: eight times more effectively than MTX; also recorded: eight times more toxicity than MTX | Dose with maximum fatality rate (C57BL/6 mice; i.c.v., doses 4, 6, 8, 10, 15 and 20 ng, six mice each): 20 ng | Time to death (C57BL/6 mice; i.c.v., doses 4–20 ng): 10 min | LD50 (C57BL/6 mice; i.c.v., male C57BL/6 mice (20 ± 2 g), six mice per dose, 4–20 ng, observed 24 h): 10 ng per mouse | LD50 (C57BL/6 mice; i.c.v., mice): 0.01 μg/mouse | Recognition by anti-MTX antibodies ([5]; different dilutions of anti-MTX mice polyclonal antibodies): well recognized by anti-MTX antibodies; also recorded: distinctly recognized | IC50 of anti-MTX serum binding relative to MTX ([5]; plates coated with 5 µg/mL antigen): identical
